The source of these data is publication PMC9858427, “Design, synthesis and biological evaluation of 2-((4-sulfamoylphenyl)amino)-pyrrolo[2,3-d]pyrimidine derivatives as CDK inhibitors” (Journal of Enzyme Inhibition and Medicinal Chemistry, 2023).

Structures are written as SMILES. Like-named read-outs stand apart in the source and are kept apart here.

A short description of data set [1]: Drug concentration in tumour tissue and plasma of tumour-bearing mice. Format: in vivo, BALB/C nude mice. The settings on record: for concentration at 1 h / concentration at 4 h: female, BALB/C nude, mouse, tumour-bearing mice (n = 3); for concentration at 1 h: 1.0 h after 30 mg/kg single oral dosing; for concentration at 4 h: 4.0 h after 30 mg/kg single oral dosing. How it is done:
AsPC-1 (5 × 10^7) cells were injected subcutaneously into 5-week-old female BALB/C nude mice (Beijing Huafukang Bioscience CO. Inc, Beijing, China). After two weeks, mice were omogenizamised and treated with vehicle, gemcitabine (GCTB), or test compound. Blank solvent and test compound was administered by oral gavage (10 ml/kg) with once daily of five days and followed by 2 days off in each week, GCTB was given once a week by 50 mg/kg intraperitoneal injection. Mice were inspected daily for clinical signs, both tumour diameters and body weight were determined 3 times weekly. Tumour volumes were calculated according to the formula “tumor volume (V) = length × width^2/2”. Median TGI values were calculated as follows: TGI = 100 × [1-(Vtreated group at day20-Vtreated group at day1)/(Vvehicle group at day20-Vvehicle group at day1)]. Data were plotted as average with SD in the graphical representation of tumour growth. The p values obtained from the two-way ANOVA analysis. Meanwhile, main organs of mice were collected, formalin-fixed and paraffin-embedded for pathological analysis by H&E dyeing. For drug concentration determination, blood and tumour tissues were collected at indicated time after single administration. Standard curve of test compound was established in the acquisition mode of SIM using a SHIMADZU LC-MS instrument. Blood kept in anticoagulant tube coated with heparin sodium was centrifuged to provide the supernatant, which was followed by added with 3-fold acetonitrile to precipitate plasma protein. After centrifugation at 10 × 10^3 for 5 min, the supernatant was injected directedly into LC-MS instrument for quantification of drug concentration. As for tumour tissues, omogenizationation (Precellys Evolution) was done after weighed accurately and added with 3-fold saline. After centrifugation under same condition as plasma samples, supernatant was separated and injected into LC-MS for quantification.

Data set [2] relates to MIA PaCa-2 cells. Briefly: Cell viability after CDK9 knockdown by siRNA. The data set is classed as cell-based, human. The settings on record: siCDK9 50 nM; compound 0.2 µM, 72 h. How it is done: Cells were planted in 96-well plates at a density of 3000–4000 cells per well and incubated at 37 °C in a humidified CO2 incubator for 24 h. Then 3-fold diluted concentrations of tested compound were added respectively which was dissolved by DMSO in the ratio of 1:1000. After indicated incubation period, MTT was added to each well and incubated for 4 h at 37 °C. Then, the supernatant was discarded gently, and the precipitate was dissolved in 100 µL of DMSO in each well. The absorbance (A) at 570 nm was detected with a microplate reader (Multiskan MK3; Thermo Fisher Scientific, MA, USA). Vehicle-treated cells were served as the control for the calculation of relative cell viability (%) of treated group at single concentration. IC50 value was calculated directly from the inhibition curve of serial dilution of test compound and was expressed as mean ± SD using the SPSS statistical software (SPSS17.0 Inc., Chicago, IL, USA).
Specific siRNAs against CDK9 (Catelog ID: SIGS0004694-1) were purchased from RiboBio (Guangdong, China) together with a scrambled siRNA. […] Approximately 48 h after transfection, the cells were analysed for protein expression by Western blot. […]

A further data set can be described thus: Oral PK study in rats. The data set is classed as in vivo. The settings on record: male, SD, rat, plasma, 30 mg/kg. On the procedure:
Synthetic compound was administered as a suspension or solution in the saline with 5% DMSO and 5% Solutol. GCTB was dissolved in saline. All of the experiments were approved by the Institutional Animal Care and Use Committee of Institute of Medicinal Biotechnology. All experiments were carried out under ethics committee–approved protocols and in compliance with the guidelines for the care of laboratory animals of Institute of Medicinal Biotechnology, CAMS.
SD rats were purchased from Beijing Vital River Laboratory Animal Technology Co., Ltd and randomly divided into three groups (n = 3, male). The animals were housed under standard conditions and fastened for 12 h before the treatment. They had free access to water and consumed a standard laboratory diet from 4 h after administration. Blood was taken from the orbital venous plexus at 0, 0.083, 0.25, 0.5, 1, 2, 4, 6, 8, and 24 h after intragastric administration of the test compound (30 mg/kg). The blood samples were collected into heparin anticoagulated EP tubes and centrifuged at 8000 r/min for 5 min at 2−8 °C; the plasma was separated and stored at −70 °C for use. Plasma was centrifuged at 4000 rpm for 10 min at 2−8 °C and stored at −70 °C until analysis. Plasma samples were analysed by LC-MS/MS (AB Sciex API4000 QTRAP) equipped with an ESI ion resource and Analyst 1.5.1 software. The noncompartmental model analysis was used for calculating pharmacokinetic parameters with the WinNolin professional v6.3 program (Pharsight, USA).

Data set [3] concerns MIA PaCa-2 cells. Briefly: Apoptosis analysis by PI and annexin V-FITC staining and flow cytometry. Format: cell-based, human. The note with it: 24 h treatment. How it is done:
(§1) MIA PaCa-2 cells were incubated with test compound at given concentration for indicated time in 6 well plates. The cells were collected and washed with cold PBS for two times. For cell cycle analysis, cells were fixed with 1 ml of 70% ethanol at −20 °C overnight then re-suspended with 400 µL binding buffer at density of 10^6 cells/mL, with PI staining for 30 min at room temperature. DNA contents were analysed by a BD Accuri C6 flow cytometry (BD Biosciences, Mountain View, CA, USA). For cell apoptosis analysis, after centrifugation and removal of the supernatants, cells were resuspended in 500 µL of 1 ×binding buffer which was then added to 5 µL of annexin V-FITC and incubated at room temperature for 10 min. After adding 10 µL of PI the cells were incubated at room temperature for another 10 min, and their fluorescence intensity evaluated by a BD Accuri C6 (BD Biosciences, Mountain View, CA, USA).

For data set [4], the system named is MIA PaCa-2 cells. Description: Cell cycle analysis by PI staining and flow cytometry. The data set is classed as cell-based, human. The settings on record: 24 h treatment. How it is done:
as §1

The mark [5] stands for this setting: plasma, read-out: Drug concentration (µM) Plasma.
The mark [6] stands for this setting: read-out: Drug concentration (µM) Tumour.

Regarding `CN(C)C(=O)c1cc2cnc(Nc3ccc(S(N)(=O)=O)cc3)nc2n1C1CCCC1` [compound 2g, 7-Cyclopentyl-N,N-dimethyl-2-((4-sulfamoylphenyl)amino)-7H-pyrrolo[2,3-d]pyrimidine-6-carboxamide], in data set [1] (30 mg/kg single oral dosing, both plasma and tumour tissue), the “drug concentration in plasma and tumour tissue relative to cellular IC50 value” is “higher than 2 fold”. Also, in data set [1] (setting [5]), the concentration at 1 h came out at 7.46 ± 1.95 µM and the concentration at 4 h came out at 0.53 ± 0.41 µM. For the same compound, in data set [1] (setting [6]), the concentration at 1 h was found to be 3.13 ± 0.64 µM and the concentration at 4 h came to 0.48 ± 0.34 µM. Also, the “sensitivity of MIA PaCa-2 cells to compound after downregulation of CDK9 by siRNA” value with MIA PaCa-2 cells [2] was “significantly decreased”. In addition, the Cmax in “Oral PK study in rats” (single oral administration, read-out: maximum plasma drug concentration (Cmax)) worked out at 1160 ng/mL. Moreover, the AUC in the data set “Oral PK study in rats” (single oral administration, read-out: systematic exposure (AUC0‑t)) turned out to be 4620 ng·h/mL. In addition, in the data set “Oral PK study in rats” (oral, n = 3), the AUC(0-inf) was found to be 5080 ± 268 ng·h/mL, the AUC(0-t) came to 4620 ± 145 ng·h/mL, the MRT amounted to 7.72 h and the Tmax is 0.5 h. In “Oral PK study in rats” (oral, n = 3), this compound had a half-life of 7.54 h. The Cmax in the data set “Oral PK study in rats” (oral, n = 3, read-out: Cmax) is 2700 nM. The “number of late apoptotic cells” value in the data set on MIA PaCa-2 cells [3] was “increased in a dose-dependent manner”. Also, the “effect on cell cycle” value in the data set on MIA PaCa-2 cells [4] (0.1 µM) is reported as “cell cycle arrest at G1 phase”. For the same compound, the “effect on cell cycle” value in the data set with MIA PaCa-2 cells [4] (0.3 and 1.0 µM) was “modest G2/M-arrested effect”.
